Test [1] deals with T1, MR (Homo sapiens, UniProt P08235).
T1 construct: expressed in transfected cells; host or cells: HEPG2
T1 sequence (P08235 1-984): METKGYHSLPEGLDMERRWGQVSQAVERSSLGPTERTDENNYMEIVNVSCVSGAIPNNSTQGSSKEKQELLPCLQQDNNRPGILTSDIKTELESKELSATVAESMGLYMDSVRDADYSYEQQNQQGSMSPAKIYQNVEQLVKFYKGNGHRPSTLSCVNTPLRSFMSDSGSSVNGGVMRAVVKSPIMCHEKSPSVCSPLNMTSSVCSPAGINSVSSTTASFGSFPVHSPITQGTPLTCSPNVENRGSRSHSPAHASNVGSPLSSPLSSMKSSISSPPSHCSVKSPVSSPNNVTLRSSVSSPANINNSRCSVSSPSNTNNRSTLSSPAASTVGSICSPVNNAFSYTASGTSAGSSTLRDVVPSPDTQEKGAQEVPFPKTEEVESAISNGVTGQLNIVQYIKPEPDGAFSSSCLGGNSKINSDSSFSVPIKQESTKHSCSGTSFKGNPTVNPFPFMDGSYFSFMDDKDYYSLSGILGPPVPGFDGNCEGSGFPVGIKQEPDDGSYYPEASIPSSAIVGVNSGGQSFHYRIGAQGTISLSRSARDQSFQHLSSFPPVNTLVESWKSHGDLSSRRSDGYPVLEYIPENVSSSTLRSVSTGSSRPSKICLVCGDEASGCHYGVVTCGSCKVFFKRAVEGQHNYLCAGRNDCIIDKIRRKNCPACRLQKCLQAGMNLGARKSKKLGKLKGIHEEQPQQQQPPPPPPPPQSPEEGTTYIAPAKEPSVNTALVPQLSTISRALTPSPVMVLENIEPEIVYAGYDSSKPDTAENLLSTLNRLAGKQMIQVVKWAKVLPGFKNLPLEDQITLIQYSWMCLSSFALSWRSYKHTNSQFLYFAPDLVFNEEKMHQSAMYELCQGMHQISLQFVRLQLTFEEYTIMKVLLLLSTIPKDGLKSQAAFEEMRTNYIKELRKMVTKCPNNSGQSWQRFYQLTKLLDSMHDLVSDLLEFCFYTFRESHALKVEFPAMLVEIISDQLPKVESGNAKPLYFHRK
The experiment in a line: MR transcriptional reporter assay, agonist mode (HEPG2 cells). It counts as cell-based. To be noted: % of maximal aldosterone-stimulated activity. The protocol:
(§1) Transcriptional assays were performed by seeding 100 μL of cells at a density of 250,000 cells/mL into 96-well cell culture plates in RPMI 1640 supplemented with 5% charcoal-stripped serum and allowed to attach overnight. […] Triplicate transfections were performed using 418 ng reporter vector (2X PRE-Luciferase for PR-A and PR-B, MMTV-Luciferase for MR), 50 ng CMVpRL (normalization vector), 10 ng NHR expression vector (CMX-PR-A, pCDNA-PR-B or 6R-MR), and 0.7 μL lipofectin. […] The final agonist concentration used in the antagonist assays was 1 nM. Following 24 hr incubation, the medium was removed and the cells were lysed in 40 μL of lysis buffer (25 mM Tris Phosphate, 2 mM CDTA, 10% Glycerol, 0.5% Triton X-100, 2 mM DTT). Firefly luciferase activity was measured immediately following the addition of 40 μL luciferase buffer (20 mM tricine, 0.1 mM EDTA, 1.07 mM (MgCO3)4 Mg(OH)2· 5H2O, 2.67 mM MgSO4, 33.3 mM DTT, 270 μM Coenzyme A, 470 μM luciferin, 530 μM ATP).

Test [2] addresses T2, GR (Homo sapiens, UniProt P04150).
T2 sequence (P04150 1-777): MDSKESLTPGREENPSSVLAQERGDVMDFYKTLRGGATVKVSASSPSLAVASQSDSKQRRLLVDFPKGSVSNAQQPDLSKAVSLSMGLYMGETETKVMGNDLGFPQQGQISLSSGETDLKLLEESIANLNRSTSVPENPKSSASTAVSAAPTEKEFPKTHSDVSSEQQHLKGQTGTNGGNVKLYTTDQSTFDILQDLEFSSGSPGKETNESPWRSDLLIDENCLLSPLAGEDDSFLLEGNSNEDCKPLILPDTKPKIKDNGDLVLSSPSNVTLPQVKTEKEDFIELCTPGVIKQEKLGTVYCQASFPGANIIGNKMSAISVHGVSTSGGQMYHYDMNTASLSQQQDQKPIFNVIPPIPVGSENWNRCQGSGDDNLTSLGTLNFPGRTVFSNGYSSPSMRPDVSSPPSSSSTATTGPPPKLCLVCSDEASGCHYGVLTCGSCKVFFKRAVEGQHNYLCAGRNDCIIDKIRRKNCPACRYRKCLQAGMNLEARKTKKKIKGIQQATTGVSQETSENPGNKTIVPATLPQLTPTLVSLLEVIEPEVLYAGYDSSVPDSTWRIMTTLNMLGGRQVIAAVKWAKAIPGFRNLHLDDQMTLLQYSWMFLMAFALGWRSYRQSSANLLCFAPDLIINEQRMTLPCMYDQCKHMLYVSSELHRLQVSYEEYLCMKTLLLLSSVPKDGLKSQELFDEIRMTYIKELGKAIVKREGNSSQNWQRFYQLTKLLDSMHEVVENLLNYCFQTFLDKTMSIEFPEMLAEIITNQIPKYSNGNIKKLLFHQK
The experiment in a line: GR transcriptional reporter assay, agonist mode (CV1 cells). The class given is cell-based. To be noted: CV-1; % of maximal dexamethasone-stimulated activity. On the procedure: CV1 cells were maintained in MEM supplemented with 10% FBS. Transcriptional assays were performed by seeding 12 mL of cells at a density of 250,000 cells/mL into a T-75 cell culture flask in MEM supplemented with 5% charcoal-stripped serum and allowed to attach overnight. Cells were transiently transfected using FuGENE 6 (Roche Applied Science). […] Transfected cells were incubated overnight then split into four 96-well tissue culture plates and incubated for 4 hr followed by compound addition. […] The final agonist concentration used in the antagonist assays was 10 nM.

Test [3] concerns the target T3, PR-B (Homo sapiens, UniProt P06401).
T3 construct: cloning full-length human PRb into pCDNA; expressed in transfected cells; host or cells: HEPG2
T3 sequence (P06401 1-933): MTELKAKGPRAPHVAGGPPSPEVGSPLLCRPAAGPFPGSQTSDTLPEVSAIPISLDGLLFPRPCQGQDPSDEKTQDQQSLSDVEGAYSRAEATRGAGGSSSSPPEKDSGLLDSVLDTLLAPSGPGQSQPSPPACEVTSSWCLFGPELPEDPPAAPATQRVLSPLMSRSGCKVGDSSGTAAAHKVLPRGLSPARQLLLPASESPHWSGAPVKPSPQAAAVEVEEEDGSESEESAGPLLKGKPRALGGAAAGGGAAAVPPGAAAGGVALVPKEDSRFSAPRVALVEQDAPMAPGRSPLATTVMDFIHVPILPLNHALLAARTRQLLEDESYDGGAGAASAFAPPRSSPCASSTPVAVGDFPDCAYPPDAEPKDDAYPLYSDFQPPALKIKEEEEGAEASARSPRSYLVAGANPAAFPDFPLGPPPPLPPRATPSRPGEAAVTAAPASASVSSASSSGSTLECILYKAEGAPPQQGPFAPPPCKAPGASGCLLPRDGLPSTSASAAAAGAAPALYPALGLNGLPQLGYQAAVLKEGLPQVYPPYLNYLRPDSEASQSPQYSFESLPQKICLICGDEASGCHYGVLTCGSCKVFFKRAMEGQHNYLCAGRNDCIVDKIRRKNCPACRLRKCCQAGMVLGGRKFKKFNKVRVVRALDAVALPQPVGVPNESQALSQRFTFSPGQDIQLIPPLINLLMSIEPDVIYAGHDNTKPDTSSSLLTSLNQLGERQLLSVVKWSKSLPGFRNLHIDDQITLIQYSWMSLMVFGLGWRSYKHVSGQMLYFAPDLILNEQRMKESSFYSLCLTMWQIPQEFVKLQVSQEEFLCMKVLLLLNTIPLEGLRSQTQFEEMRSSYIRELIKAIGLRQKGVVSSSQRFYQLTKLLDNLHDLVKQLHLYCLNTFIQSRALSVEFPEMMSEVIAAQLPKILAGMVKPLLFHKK
The experiment in a line: PR-B transcriptional reporter assay, agonist mode (HEPG2 cells). It counts as cell-based. To be noted: % of maximal R5020-stimulated activity.

Test [4] deals with T4, PR-A (Homo sapiens, UniProt P06401).
T4 sequence (P06401 1-769 isoform P06401-2): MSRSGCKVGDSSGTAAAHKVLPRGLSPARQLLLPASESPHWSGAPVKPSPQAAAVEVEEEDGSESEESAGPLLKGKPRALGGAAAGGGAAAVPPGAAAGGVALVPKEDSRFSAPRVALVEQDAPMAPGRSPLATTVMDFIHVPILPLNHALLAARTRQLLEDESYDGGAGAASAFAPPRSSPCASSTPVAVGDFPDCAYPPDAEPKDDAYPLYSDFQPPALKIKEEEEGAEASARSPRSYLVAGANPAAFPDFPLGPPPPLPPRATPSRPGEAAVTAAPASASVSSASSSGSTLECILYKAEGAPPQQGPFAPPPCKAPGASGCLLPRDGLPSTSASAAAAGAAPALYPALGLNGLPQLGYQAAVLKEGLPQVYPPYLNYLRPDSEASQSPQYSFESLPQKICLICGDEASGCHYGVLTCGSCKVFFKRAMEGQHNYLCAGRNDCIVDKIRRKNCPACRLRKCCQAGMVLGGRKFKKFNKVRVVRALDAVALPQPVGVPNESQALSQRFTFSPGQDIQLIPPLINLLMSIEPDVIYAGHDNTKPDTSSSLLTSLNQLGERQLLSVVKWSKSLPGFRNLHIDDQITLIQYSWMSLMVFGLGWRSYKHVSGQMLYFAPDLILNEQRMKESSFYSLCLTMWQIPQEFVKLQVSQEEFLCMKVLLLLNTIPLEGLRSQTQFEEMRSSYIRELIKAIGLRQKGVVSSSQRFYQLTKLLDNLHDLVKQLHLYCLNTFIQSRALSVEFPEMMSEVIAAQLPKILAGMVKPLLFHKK
Put plainly: PR-A transcriptional reporter assay, agonist mode (HEPG2 cells). Further details: subcloning full-length PRa into pCMX; expressed in transfected cells; host or cells: HEPG2. The class given is cell-based. To be noted: % of maximal R5020-stimulated activity. On the procedure: as §1

In test [5] the target is T5, human estrogen receptor alpha, GST-tagged ESR1 ligand binding domain, residues S282-V595, wild-type sequence (human, UniProt P03372 282-595).
T5 construct: Detected in the TR-FRET assay through a LanthaScreen Tb-anti-GST antibody; also called ER.WT; ERα LBD
T5 sequence (looked up): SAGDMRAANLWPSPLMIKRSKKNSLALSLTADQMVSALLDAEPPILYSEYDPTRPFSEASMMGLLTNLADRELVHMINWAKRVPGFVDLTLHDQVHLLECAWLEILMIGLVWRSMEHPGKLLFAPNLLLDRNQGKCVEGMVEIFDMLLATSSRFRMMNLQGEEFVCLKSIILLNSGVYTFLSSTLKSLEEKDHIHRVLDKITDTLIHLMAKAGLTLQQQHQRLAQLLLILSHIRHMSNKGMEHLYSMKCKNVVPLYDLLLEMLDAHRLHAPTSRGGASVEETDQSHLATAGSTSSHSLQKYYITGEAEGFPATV
The experiment in a line: FRET or BRET; cell-free TR-FRET PGC1α recruitment assay; GST-ERα LBD (3x solution 22 nM) detected with Tb-anti-GST antibody (3x mix 15 nM), Fluorescein-PGC1α peptide (3x mix 750 nM), estradiol (3x mix 12 nM; agonist at EC80), TR-FRET Co-regulator Buffer E with 7.5 mM DTT, 2 hr at room temperature; GDC-0810 titrated as small-molecule competitor. To be noted: both partners purified.

Three molecules from PMC4961458 (eLife, 2016) can be followed below.

No end group written: not given here.

As to `CC(=O)S[C@@H]1CC2=CC(=O)CC[C@]2(C)[C@H]2CC[C@@]3(C)[C@@H](CC[C@@]34CCC(=O)O4)[C@H]12` [Spironolactone], the Emax in test [1] is 6.24 ± 0.37%. Turning to `CC#C[C@]1(O)CC[C@H]2[C@@H]3CCC4=CC(=O)CCC4=C3[C@@H](c3ccc(N(C)C)cc3)C[C@@]21C` [RU-486], the Emax in test [2] was found to be 8.06 ± 0.66%; in test [3], 3.25 ± 1.17%; in test [4], 13.3 ± 10.2%.

B1: Fluorescein-PGC1α peptide (peptide)
peptide: EAEEPSLLKKLLLAPANTQ
modifications: also: fluorescein (position not given here)
notes: source: bought: Life Technologies PV4421
Consider B1, for which the binding result in test [5] is given as “binds”.
